Tests used:
[1] = tested on: rno expression in HL-60 cells; test: RT-PCR analysis of rno expression in HL-60 cells treated with differentiating agents; assay type: cell-based, human; details: for rno expression (RT-PCR), sGC/cGMP pathway agents alone: ODQ 10 μM, 8-Br-cGMP 3 mM; for time course of rno induction (RT-PCR): 125 μM DETA-NO or 1.2% DMSO added once, 24, 48, 72 hr; for rno expression (RT-PCR): DETA-NO 125 μM, DMSO 1.2% (v/v), VD3 100 nM
Procedure: FIG. 4 is a […] showing the effect of differentiating agents on rno expression in HL-60 cells. For the upper panel, HL-60 cells were treated with DETA-NO, DMSO, or VD3 for 24 hours before analysis of rno expression by RT-PCR. Lane 1, no treatment control; Lane 2, DETA-NO; Lane 3, DMSO; Lane 4, VD3; Lane 5, water blank (no template); Lane 6, reverse transcriptase omitted from the reaction mixture; Lane 7, RT-PCR performed using RNA isolated from normal PMN (positive control). The positions of the size marker (MW) are indicated on the left. The positions of rno-1 and rno-3 are shown on the right. Referring to the lower panel, RT-PCR analysis of actin expression was used to control for the quality and integrity of the cDNA that was prepared from the various samples. Lane 1, no treatment control cells; Lane 2, cells treated with DETA-NO, Lane 3, cells treated with DMSO; Lane 4, cells treated with VD3; Lane 5, water blank (no template), Lane 6, RT-PCR performed using RNA isolated from normal PMN.
FIG. 5 illustrates the time course of rno induction in HL-60 cells. For the results of the upper panel, HL-60 cells were treated with 125 μM DETA-NO or 1.2% DMSO, and expression of rno was analyzed by RT-PCR at three different time points. MW, 100 bp DNA ladder; Lane 1, no-treatment control cells; Lane 2, cells treated with DETA-NO for 24 hr; Lane 3, cells treated with DETA-NO for 48 hr; Lane 4; cells treated with DETA-NO for 72 hr; Lane 5, cells treated with DMSO for 24 hr; Lane 6, cells treated with DMSO for 48 hr; Lane 7, cells treated with DMSO 72 hr; Lane 8, water blank (no template). The position of rno-1 is indicated on the left. For the results of the lower panel, RT-PCR analysis of actin expression was used to control for the quality and integrity of the cDNA that was prepared from the various samples. MW, 100 bp DNA ladder; Lane 1, no-treatment control cells; Lane 2, cells treated with DETA-NO for 24 hr; Lane 3, cells treated with DETA-NO for 48 hr; Lane 4; cells treated with DETA-NO for 72 hr; Lane 5, cells treated with DMO for 24 hr; Lane 6, cells treated with DMSO for 48 hr; Lane 7, cells treated with DMSO 72 hr. The position of actin is indicated on the left. DETA-NO upregulates rno within 24 hours and expression returns to baseline by 48 hours. DMSO also upregulates rno within 24 hours but expression persists through the entire 72 hr of exposure.
FIG. 6 illustrates the effect of cGMP on rno expression. In the upper pannel, HL-60 cells were treated with DETA-NO, 8Br-cGMP, ODQ, or ODQ and DETA-NO for 24 hours. Subsequently rno expression was analyzed by using RT-PCR. Lane 1, molecular mass standards (100 bp ladder); Lane 2, no-treatment control cells; Lane 3, DETA-NO; Lane 4, 8-Br-cGMP; Lane 5, ODQ; Lane 6, ODQ and DETA-NO; Lane 7, water blank (no cDNA template); Lane 8, reverse transcriptase omitted from one of the reaction mixtures. The position of rno-1 is indicated on the left. In the lower panel, RT-PCR analysis of actin expression was used to control for the quality and integrity of the cDNA that was prepared from the various samples. Lane 1,100 bp DNA ladder; Lane 2, no-treatment control; Lane 3, cells treated with DETA-NO; Lane 4, cells treated with 8Br-cGMP; Lane 5, cells treated with ODQ; Lane 6, cells treated with ODQ and DETA-NO. The position of actin is indicated on the left. Upregulation of rno by DETA-NO is cGMP-independent.
Referring to FIG. 4, RT-PCR was used to compare the effects of three differentiating agents on expression of rno. NO induces HL-60 cells to differentiate along the monocytic lineage. Magrinat, G et al. (1992) Blood, 80:1980-1986. DMSO is a granulocytic differentiation agent, while VD3 induces monocytic differentiation. Trayner, ID et al. (1998) Leuk Res., 22:537-547.
Referring to FIG. 4, both NO and DMSO induce expression of rno. To determine if the time-course of induction is similar, HL-60 cells were incubated with either DETA-NO or DMSO for 72 hr. […]

[2] = tested on: rno expression in HL-60 cells; test: Northern analysis of rno expression in DETA-NO treated HL-60 cells; assay type: cell-based, human; details: DETA-NO 125 μM, 24 hr, DP-3A probe
Procedure: FIG. 1 is a northern blot showing the induction of rno expression by NO. HL-60 cells were treated for 24 hr with DETA-NO (125 μM). Total cellular RNA was isolated and northern analysis was performed by using radiolabelled rno DP-3A as a probe as shown in the upper panel. […] The positions of the bands representing 28S and 18S ribosomal RNA are indicated on the left. Lane 1, RNA from control, untreated cells; Lane 2, RNA from DETA-NO treated cells.
The following two sets of cells were used for analysis of the effects NO on gene expression: control HL-60 cells incubated in media for 24 hours and HL-60 cells treated with 125 μM DETA-NO (a NO generating compound) for the same time period. Poly (A^+) RNA was prepared from the two sets of cells, and this material was used as template for the synthesis of double stranded cDNA. Following digestion with BglII, a set of primer/adapters was ligated to aliquots of each sample, and this cDNA was amplified by PCR to generate representations from the control and treated populations. By using the technique of RDA modified for cDNA, gene expression between the control and DETA-NO treated cells was compared. Lisitsyn, N et al. (1993) Science.259:946-951; Hubank, M & Schatz, D G (1994) Nucl Acids Res. 22:5640-5648; Kanai, N et al. (1999) Am J Hematol., 61:221-231. In the present study, two sets of subtraction/hybridizations were performed in parallel. […]

[3] = Half-life of NO release of DETA-NO; assay type: physicochemical; details: by the time the 48 hr sample was harvested, from half-life of 20 hr
Procedure: HL-60 cells were from ATCC (Rockville, Md.) and were cultured at 37° C. in a 5% CO2 humidified atmosphere at a density of 150,000 cells/ml. The culture medium consisted of RPMI-1640 supplemented with 10% fetal bovine serum and 1% Penicillin (10,000 U/mL)/Streptomycin (10 mg/mL). (Z)-1-[2-(2-Aminoethyl)-N-(2-ammonioethyl)amino]diazen-1-um-1,2-diolate] (DETA-NO) was used as a source of NO. DETA-NO belongs to the diazenium diolate class of NO donors and releases 2 molecules of NO per carrier moiety with a half-life of NO release of 20 hours. Keefer, L K et al. (1996) Methods in Enzymology.268:281-293. The effects of the following other differentiating agents on expression of rno were also investigated: dimethyl sulfoxide (DMSO); all-trans retinoic acid (ATRA); and vitamin D3 (VD3). DETA-NO, DMSO, ATRA, or VD3 were added once to HL-60 cells at the time of culture initiation at concentrations of 125 μM, 1.2% (v/v), 1 μM, and 100 nM, respectively. For studies of the role of the soluble guanylate cyclase (sGC)/cGMP signal transduction pathway in NO upregulation of rno, the sGC inhibitor 1H-[1,2,4]oxadiazolo[4,3-a]quinoxalin-1 -one (ODQ) and the cell permeable cGMP analogue 8-Br-cGMP at concentrations of 10 μM were used and 3 mM, respectively. Brunner, F et al. (1996) J Pharmacol Exp Ther. 277:48-53; Boss, GR.(1989) Proc Natl Acad Sci USA. 86:7174-7178. […]

Row | SMILES | rno expression (RT-PCR), sGC/cGMP pathway agents alone ([1]; 24 hours) | time course of rno induction (RT-PCR) [1] | rno expression (RT-PCR) ([1]; 24 hours) | further results
1 | Nc1nc2c(nc(Br)n2[C@@H]2O[C@@H]3COP(=O)(O)O[C@H]3[C@H]2O)c(=O)[nH]1 [8-Br-9 cGMP] | did not induce rno expression | – | – | –
2 | CC1=C(/C=C/C(C)=C/C=C/C(C)=C/C(=O)O)C(C)(C)CCC1 [ATRA, all-trans retinoic acid] | – | – | – | rno expression (RT-PCR), data not shown ([1]; ATRA 1 μM, even after 72 hr of exposure): no effect on rno expression
3 | NCCN(CCN)/[N+]([O-])=N/O [DETA-NO] | – | evident at 24 hr and returned to baseline by 48 hr | upregulated | rno expression (northern blot) [2]: upregulates rno expression; decrease of functional activity of the reagent [3]: more than 75%
4 | C[S+](C)[O-] [DMSO, dimethyl sulfoxide] | – | induced expression of rno within 24 hr, however, expression persisted through the entire 72 hr observation period | upregulated | –
5 | O=c1onc2cnc3ccccc3n12 [ODQ, 1H-[1,2,4]oxadiazolo[4,3-a]quinoxalin-1-one] | did not upregulate rno expression | – | – | effect of sGC inhibitor on induction of rno by DETA-NO (RT-PCR) ([1]; ODQ and DETA-NO in combination, 24 hours): did not prevent the induction of rno by DETA-NO
6 | C=C1CC[C@H](O)C/C1=C/C=C1\CCC[C@]2(C)[C@@H]([C@H](C)CCCC(C)C)CC[C@@H]12 [VD3, vitamin D3] | – | – | not by VD3 | –

Source: patent US20010029033A1, “Novel gene rno upregulated in leukemia cells by nitric oxide and DMSO” (priority 2000, published 2001)
